The source of these data is patent US20080306126A1, “Peroxisome proliferator activated receptor treatment of hyperhomocysteinemia and its complications” (priority 2004, published 2008).

What all share (assay type): in vivo, Sprague Dawley rats
Assay [1] has as its system balloon catheter-injured carotid arteries. Kind of assay: Balloon catheter injury of the carotid artery: development of intimal hyperplasia (I/M ratio). As to conditions: for I/M ratio of representative micrograph (single animal): 21 days after injury; for I/M (intimal/medial ratio), group mean: three weeks after catheter injury. As for the experimental part:
(§1) Ten-week-old female Sprague Dawley rats were obtained from Harlan Laboratories (Indianapolis, Ind.). After an acclimatization period of one week, they were fed a powdered control diet with or without methionine for one week. After one week on the normal or methionine diet, an aqueous preparation rosiglitazone (3.0 mg/kg/d) or vehicle was administered by gavage. The methionine diet was prepared with 10 g of L-methionine obtained from Sigma Chemical Company in St. Louis, Miss., added to 10 kg of powdered feed and thoroughly mixed. The rats were divided into four groups (n=7/group) and fed a) control diet; b) control diet with administration of rosiglitazone; c) methionine diet; and d) methionine diet with rosiglitazone.
Balloon catheter injury of to the carotid artery was induced as previously published (27). Briefly, a 2.0 mm PTCA obtained from Boston Scientific, Inc. in Quincy, Mass. was introduced through the femoral artery to the left carotid. The balloon was inflated to 4 atmospheres for 20 seconds and then deflated to 2 atmospheres and dragged down to the aorta. The animals were continued on their respective diets and rosiglitazone treatment was continued as indicated for three weeks after the surgery. The surgical procedures were conducted under anesthesia in a totally aseptic atmosphere. All rats had free access to the feed and water, and were maintained in a 12 hour day/light cycle.
The carotid arteries were separated and flushed with zinc buffered formalin. Each artery was cut from top into 4 equal segments and placed sequentially for embedding in paraffin. Sections no thicker then 6 um were cut and stained with hemotoxalin and eosin for microscopy. All four segments were read and the intimal/medial (I/M) ratio was calculated using Image-Pro software (NIH). The mean of the I/M ratios of the 4 sections reflected the I/M for one animal.

Assay [2] can be described thus: Serum homocysteine levels by high pressure liquid chromatography. As for the experimental part:
as §1
(§2) Before the beginning of the experiment, and at the time of sacrificing the animal a blood sample was obtained from each rat. At the end of the experiment, rats were sacrificed using a carbon dioxide chamber for harvesting tissues. Samples of blood and liver were collected and immediately processed. The serum and liver samples were stored frozen.
(§3) The Hcy levels were measured by high pressure liquid chromatography according to an established method (28,29). Cystathionine-β-synthase (CβS) was assayed in the liver samples, and the procedure followed was as previously published (26).

Assay [3] concerns cystathionine-β-synthase (CβS). Put plainly: Cystathionine-β-synthase activity assayed in liver samples of treated rats. The note with it: methionine diet with rosiglitazone, methionine diet alone 0.35+/−0.05. On the procedure: as §1, §2, §3

Molecules are shown by their SMILES.

`CN(CCOc1ccc(CC2SC(=O)NC2=O)cc1)c1ccccn1` (stereo not drawn) [rosiglitazone]: the “I/M ratio of representative micrograph (single animal)” value in assay [1] (FIG. 1 micrograph C: control diet with rosiglitazone) is listed as 0.19; in assay [1] (FIG. 1 micrograph D: methionine diet with rosiglitazone) it was 0.17. Further, the “I/M (intimal/medial ratio), group mean” value in assay [1] (control diet with rosiglitazone 3.0 mg/kg/d by gavage, control diet alone 0.18+/−0.05) is reported as 0.21+/−0.03; in assay [1] (methionine diet with rosiglitazone 3.0 mg/kg/d by gavage, methionine diet alone 0.82+/−0.21) it was 0.28+/−0.12; in assay [1] (methionine diet with rosiglitazone 3.0 mg/kg/d by gavage, methionine diet alone 0.82+/−0.21, listed as Rosiglitazone), 0.27+/−0.12. Further, in assay [2] (control diet with rosiglitazone, control diet alone 6.3+/−0.04 μM), the serum homocysteine level is 5.1 ± 0.6 µM. In assay [2] (methionine diet with rosiglitazone treatment (background summary)), the homocysteine level is 16.4 ± 1.7 µM. In addition, the serum homocysteine concentration in assay [2] (methionine diet with rosiglitazone, methionine diet alone 28.9+/−3.2 μM) is 16.4 ± 1.7 µM. In addition, in assay [3], the CβS activity is listed as 0.57+/−0.1 μmoles/mg protein.
